Measured values as given in PubChem BioAssay (NCI).
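Interpolation was linear, between the two tested concentrations surrounding the appropriate level; five concentrations were tested over 48 hours in 96-well plates. GI50 marks 50% less growth. At the TGI there is no net growth.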

Assays:
Experiment in all cases: growth of human tumour cells (NCI), 48 h
HCC-2998 colon = tested on: HCC-2998 colon
SK-MEL-2 melanoma = tested on: SK-MEL-2 melanoma
OVCAR-5 ovarian = tested on: OVCAR-5 ovarian
IGROV1 ovarian = tested on: IGROV1 ovarian
HOP-92 NSCLC = tested on: HOP-92 NSCLC
EKVX NSCLC = tested on: EKVX NSCLC
UACC-257 melanoma = tested on: UACC-257 melanoma
A549 NSCLC = tested on: A549 NSCLC
MOLT-4 leukemia = tested on: MOLT-4 leukemia
MALME-3M melanoma = tested on: MALME-3M melanoma
KM12 colon = tested on: KM12 colon
MDA-MB-231 breast = tested on: MDA-MB-231 breast
NCI-H226 lung = tested on: NCI-H226 lung
U251 CNS = tested on: U251 CNS
OVCAR-4 ovarian = tested on: OVCAR-4 ovarian
TK-10 renal = tested on: TK-10 renal
OVCAR-3 ovarian = tested on: OVCAR-3 ovarian
MCF7 breast = tested on: MCF7 breast
BT-549 breast = tested on: BT-549 breast
SF-539 CNS = tested on: SF-539 CNS
COLO 205 colon = tested on: COLO 205 colon
SF-268 CNS = tested on: SF-268 CNS
HOP-62 NSCLC = tested on: HOP-62 NSCLC
NCI-H23 lung = tested on: NCI-H23 lung
K-562 leukemia = tested on: K-562 leukemia
UO-31 renal = tested on: UO-31 renal
HS 578T breast = tested on: HS 578T breast
RPMI-8226 leukemia = tested on: RPMI-8226 leukemia
T-47D breast = tested on: T-47D breast
NCI-H522 lung = tested on: NCI-H522 lung
SR leukemia = tested on: SR leukemia
DU-145 prostate = tested on: DU-145 prostate
MDA-MB-435 = tested on: MDA-MB-435
PC-3 prostate = tested on: PC-3 prostate
NCI/ADR-RES ovarian = tested on: NCI/ADR-RES ovarian
SNB-19 CNS = tested on: SNB-19 CNS
OVCAR-8 ovarian = tested on: OVCAR-8 ovarian
SNB-75 CNS = tested on: SNB-75 CNS
HCT-116 colon = tested on: HCT-116 colon
HT29 colon = tested on: HT29 colon
SF-295 CNS = tested on: SF-295 CNS
SK-MEL-28 melanoma = tested on: SK-MEL-28 melanoma
CAKI-1 renal = tested on: CAKI-1 renal
M14 melanoma = tested on: M14 melanoma
HCT-15 colon = tested on: HCT-15 colon
LOX IMVI melanoma = tested on: LOX IMVI melanoma
SN12C renal = tested on: SN12C renal
RXF 393 renal = tested on: RXF 393 renal
NCI-H460 lung = tested on: NCI-H460 lung
HL-60(TB) leukemia = tested on: HL-60(TB) leukemia
SK-OV-3 ovarian = tested on: SK-OV-3 ovarian
786-0 renal = tested on: 786-0 renal
UACC-62 melanoma = tested on: UACC-62 melanoma
ACHN renal = tested on: ACHN renal
CCRF-CEM leukemia = tested on: CCRF-CEM leukemia
SW-620 colon = tested on: SW-620 colon
SK-MEL-5 melanoma = tested on: SK-MEL-5 melanoma
A498 renal = tested on: A498 renal

CCOC(=O)C1=C(C)OC2(O)C=CC(O)=C3C(=O)N(c4ccccc4)C(=O)C312 (stereo unspecified)
TGI (HCC-2998 colon): 73.9 µM
TGI (SK-MEL-2 melanoma): 68.4 µM
TGI (OVCAR-5 ovarian): > 100 µM
TGI (IGROV1 ovarian): 68.2 µM
TGI (HOP-92 NSCLC): > 100 µM
TGI (EKVX NSCLC): > 100 µM
TGI (UACC-257 melanoma): 99.4 µM
TGI (A549 NSCLC): > 100 µM
TGI (MOLT-4 leukemia): > 100 µM
TGI (MALME-3M melanoma): 41.7 µM
TGI (KM12 colon): > 100 µM
TGI (MDA-MB-231 breast): > 100 µM
TGI (NCI-H226 lung): 80.3 µM
TGI (U251 CNS): > 100 µM
TGI (OVCAR-4 ovarian): > 100 µM
TGI (TK-10 renal): > 100 µM
TGI (OVCAR-3 ovarian): > 100 µM
TGI (MCF7 breast): 79.4 µM
TGI (BT-549 breast): 70.5 µM
TGI (SF-539 CNS): 68.2 µM
TGI (COLO 205 colon): > 100 µM
TGI (SF-268 CNS): > 100 µM
TGI (HOP-62 NSCLC): > 100 µM
TGI (NCI-H23 lung): > 100 µM
TGI (K-562 leukemia): > 100 µM
TGI (UO-31 renal): 65.4 µM
TGI (HS 578T breast): 61.7 µM
TGI (RPMI-8226 leukemia): 86.1 µM
TGI (T-47D breast): > 100 µM
TGI (NCI-H522 lung): 35.6 µM
TGI (SR leukemia): 53.2 µM
TGI (DU-145 prostate): > 100 µM
TGI (MDA-MB-435): > 100 µM
TGI (PC-3 prostate): > 100 µM
TGI (NCI/ADR-RES ovarian): > 100 µM
TGI (SNB-19 CNS): 65.3 µM
TGI (OVCAR-8 ovarian): > 100 µM
TGI (SNB-75 CNS): 87.8 µM
TGI (HCT-116 colon): > 100 µM
TGI (HT29 colon): 76.7 µM
TGI (SF-295 CNS): > 100 µM
TGI (SK-MEL-28 melanoma): 49.7 µM
TGI (CAKI-1 renal): > 100 µM
TGI (M14 melanoma): > 100 µM
TGI (HCT-15 colon): > 100 µM
TGI (LOX IMVI melanoma): 52.9 µM
TGI (SN12C renal): > 100 µM
TGI (RXF 393 renal): 47.7 µM
TGI (NCI-H460 lung): > 100 µM
TGI (HL-60(TB) leukemia): > 100 µM
TGI (SK-OV-3 ovarian): > 100 µM
TGI (786-0 renal): > 100 µM
TGI (UACC-62 melanoma): 76.7 µM
TGI (ACHN renal): > 100 µM

Cc1cc2c(cc1C)N(C(=O)CCl)CC(=O)N2
GI50 (HCC-2998 colon): 2.88 µM
TGI (HCC-2998 colon): 8.91 µM
GI50 (SK-MEL-2 melanoma): 4.2 µM
TGI (SK-MEL-2 melanoma): 14.4 µM
GI50 (OVCAR-5 ovarian): 2.53 µM
TGI (OVCAR-5 ovarian): 5.33 µM
GI50 (IGROV1 ovarian): 2.22 µM
TGI (IGROV1 ovarian): 4.45 µM
GI50 (HOP-92 NSCLC): 1.59 µM
TGI (HOP-92 NSCLC): 3.93 µM
GI50 (UACC-257 melanoma): 4.83 µM
TGI (UACC-257 melanoma): 18.5 µM
GI50 (A549 NSCLC): 8.23 µM
TGI (A549 NSCLC): 26.7 µM
GI50 (MOLT-4 leukemia): 2.41 µM
TGI (MOLT-4 leukemia): 7.01 µM
GI50 (MALME-3M melanoma): 1.81 µM
TGI (MALME-3M melanoma): 3.81 µM
GI50 (KM12 colon): 8.2 µM
TGI (KM12 colon): 22.2 µM
GI50 (MDA-MB-231 breast): 4.19 µM
TGI (MDA-MB-231 breast): 15.9 µM
GI50 (CCRF-CEM leukemia): 2.01 µM
TGI (CCRF-CEM leukemia): 5.49 µM
GI50 (U251 CNS): 1.92 µM
TGI (U251 CNS): 4.25 µM
GI50 (OVCAR-4 ovarian): 1.59 µM
TGI (OVCAR-4 ovarian): 3.05 µM
GI50 (TK-10 renal): 2.11 µM
TGI (TK-10 renal): 3.59 µM
GI50 (OVCAR-3 ovarian): 1.89 µM
TGI (OVCAR-3 ovarian): 3.33 µM
GI50 (MCF7 breast): 2.45 µM
TGI (MCF7 breast): 10.9 µM
GI50 (BT-549 breast): 2.64 µM
TGI (BT-549 breast): 11.3 µM
GI50 (SF-539 CNS): 3.44 µM
TGI (SF-539 CNS): 10.9 µM
GI50 (COLO 205 colon): 2.09 µM
TGI (COLO 205 colon): 3.68 µM
GI50 (SF-268 CNS): 3.47 µM
TGI (SF-268 CNS): 11.6 µM
GI50 (HOP-62 NSCLC): 3.3 µM
TGI (HOP-62 NSCLC): 12 µM
GI50 (NCI-H23 lung): 3.41 µM
TGI (NCI-H23 lung): 16.4 µM
GI50 (K-562 leukemia): 3.39 µM
TGI (K-562 leukemia): 29.4 µM
GI50 (UO-31 renal): 1.74 µM
TGI (UO-31 renal): 3.24 µM
GI50 (HS 578T breast): 4.08 µM
TGI (HS 578T breast): 68.8 µM
GI50 (RPMI-8226 leukemia): 2.35 µM
TGI (RPMI-8226 leukemia): 7.15 µM
GI50 (T-47D breast): 1.97 µM
TGI (T-47D breast): 3.99 µM
GI50 (NCI-H522 lung): 0.568 µM
TGI (NCI-H522 lung): 1.97 µM
GI50 (SR leukemia): 2.65 µM
TGI (SR leukemia): 7.04 µM
GI50 (DU-145 prostate): 3.49 µM
TGI (DU-145 prostate): 10.2 µM
GI50 (SW-620 colon): 2.19 µM
TGI (SW-620 colon): 5.05 µM
GI50 (MDA-MB-435): 2.67 µM
TGI (MDA-MB-435): 10.2 µM
GI50 (PC-3 prostate): 4.48 µM
TGI (PC-3 prostate): 18.9 µM
GI50 (NCI/ADR-RES ovarian): 3.18 µM
TGI (NCI/ADR-RES ovarian): > 100 µM
GI50 (SK-MEL-5 melanoma): 3.48 µM
TGI (SK-MEL-5 melanoma): 13.6 µM
GI50 (SNB-19 CNS): 12.6 µM
TGI (SNB-19 CNS): 26.2 µM
GI50 (A498 renal): 3.5 µM
TGI (A498 renal): 18.2 µM
GI50 (OVCAR-8 ovarian): 3.01 µM
TGI (OVCAR-8 ovarian): 10.8 µM
GI50 (SNB-75 CNS): 3.39 µM
TGI (SNB-75 CNS): 20.8 µM
GI50 (HCT-116 colon): 2.53 µM
TGI (HCT-116 colon): 9.77 µM
GI50 (HT29 colon): 2.01 µM
TGI (HT29 colon): 3.73 µM
GI50 (SF-295 CNS): 13.6 µM
TGI (SF-295 CNS): 29.6 µM
GI50 (SK-MEL-28 melanoma): 3.89 µM
TGI (SK-MEL-28 melanoma): 14.8 µM
GI50 (CAKI-1 renal): 1.84 µM
TGI (CAKI-1 renal): 3.52 µM
GI50 (M14 melanoma): 2.2 µM
TGI (M14 melanoma): 8.35 µM
GI50 (HCT-15 colon): 1.74 µM
TGI (HCT-15 colon): 3.42 µM
GI50 (LOX IMVI melanoma): 0.858 µM
TGI (LOX IMVI melanoma): 4.85 µM
GI50 (SN12C renal): 3.44 µM
TGI (SN12C renal): 12 µM
GI50 (RXF 393 renal): 2.46 µM
TGI (RXF 393 renal): 5.68 µM
GI50 (NCI-H460 lung): 3.66 µM
TGI (NCI-H460 lung): 14.4 µM
GI50 (HL-60(TB) leukemia): 2.69 µM
TGI (HL-60(TB) leukemia): 5.74 µM
GI50 (SK-OV-3 ovarian): 12.2 µM
TGI (SK-OV-3 ovarian): 24.6 µM
GI50 (786-0 renal): 3.9 µM
TGI (786-0 renal): 15.5 µM
GI50 (UACC-62 melanoma): 3.54 µM
TGI (UACC-62 melanoma): 12.7 µM
GI50 (ACHN renal): 1.82 µM
TGI (ACHN renal): 3.24 µM
